Strand notation (5' to 3'): a small letter for the sugar, then the base; units joined by * are phosphorothioate-linked, units joined directly phosphodiester-linked; [ ] holds rarer units or linkages, { } end groups; capitals alone tell only the bases. e = 2'-O-(2-methoxyethyl) (MOE); [5mC] = 5-methylcytosine; d = 2'-deoxy (DNA)
System: human PKK mRNA
Test: Antisense inhibition of human PKK mRNA in HepaRG cells, 5,000 nM (Example 2)
Type: cell-based
Outline: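 HepaRG cells, 20,000 per well, were electroporated with 5,000 nM MOE gapmer (phosphorothioate, 5-methylcytosine) and incubated about 24 hours. PKK mRNA was quantified by qRT-PCR with primer probe set RTS3454, normalized to RIBOGREEN total RNA, and expressed as percent inhibition versus untreated controls.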

[1] = HepaRG cells, 5,000 nM antisense oligonucleotide, 5-10-5 gapmers, Table 17
[2] = HepaRG cells, electroporation, 5,000 nM antisense oligonucleotide, approx. 24 hours, primer probe set RTS3454, relative to untreated control cells, Table 12
[3] = HepaRG cells, electroporation with 5,000 nM antisense oligonucleotide, approximately 24 hours, PKK mRNA by RT-PCR (RTS3454), relative to untreated control cells, Table 6 experiment
[4] = human PKK mRNA in HepaRG cells, 5-10-5 gapmers, Table 14
[5] = Table 7, HepaRG cells, electroporation with 5,000 nM antisense oligonucleotide, approx. 24 hours, PKK mRNA by RT-PCR (RTS3454), relative to untreated control cells
[6] = Table 9 experiment, HepaRG cells, 20,000 cells per well, electroporation with 5,000 nM antisense oligonucleotide, approx. 24 hours, PKK mRNA by RT-PCR (RTS3454), relative to untreated control cells
[7] = Table 10 experiment, HepaRG cells, 20,000 cells per well, electroporation with 5,000 nM antisense oligonucleotide, approx. 24 hours, PKK mRNA by RT-PCR (RTS3454), relative to untreated control cells
[8] = HepaRG cells, 5,000 nM antisense oligonucleotide, human PKK mRNA, Table 18
[9] = human PKK mRNA, HepaRG cells, 5,000 nM antisense oligonucleotide, Table 18
[10] = human PKK mRNA, HepaRG cells, 5-10-5 motif oligonucleotides targeting SEQ ID NO: 1 and 10
[11] = Table 13, human PKK mRNA in HepaRG cells, 5-10-5 gapmers
[12] = HepaRG cells, 5,000 nM antisense oligonucleotide, 5-10-5 gapmers, Table 16
[13] = HepaRG cells, electroporation with 5,000 nM antisense oligonucleotide, approximately 24 hours, PKK mRNA by RT-PCR (RTS3454), relative to untreated control cells, Table 5 experiment
[14] = Table 8, HepaRG cells, electroporation with 5,000 nM antisense oligonucleotide, approx. 24 hours, PKK mRNA by RT-PCR (RTS3454), relative to untreated control cells

547059 (eG*eG*eG*eT*eA*dT*d[5mC]*dT*dT*d[5mC]*dA*d[5mC]*dT*dG*dT*eT*e[5mC]*e[5mC]*eA*eG; antisense) [compound 547059]
% inhibition [1]: 12%

547533 (antisense eT*eT*eT*eT*eG*d[5mC]*dT*dT*dG*dG*d[5mC]*dT*dT*d[5mC]*dA*eA*eT*eA*eT*eT) [compound 547533]
% inhibition [2]: 23%

547323 (antisense eT*eT*eG*e[5mC]*eT*dT*d[5mC]*dA*dA*dG*dG*dA*dA*dT*dG*eT*e[5mC]*e[5mC]*eA*eG) [compound 547323]
% inhibition [3]: 56%

546860 (e[5mC]*eT*eA*eG*eT*dT*dT*d[5mC]*d[5mC]*dT*dA*dT*dA*dA*d[5mC]*eT*eA*eT*eA*eA; antisense) [compound 546860]
% inhibition [4]: 36%

547405 (e[5mC]*eA*eA*eA*eG*dT*d[5mC]*dA*dA*d[5mC]*dT*d[5mC]*d[5mC]*d[5mC]*dG*eG*eG*eT*eA*eA; antisense) [compound 547405]
% inhibition [5]: 47%

546352 (antisense e[5mC]*eA*e[5mC]*e[5mC]*eA*dG*dG*dT*dT*dG*d[5mC]*dT*d[5mC]*d[5mC]*d[5mC]*eT*eG*e[5mC]*eG*eG) [compound 546352]
% inhibition [6]: 75%
% inhibition [7]: 74%

548724 (DNA eT*e[5mC]*eA*d[5mC]*dT*dG*dT*dA*d[5mC]*dT*dA*dG*dT*eT*eT*e[5mC]*e[5mC]; antisense) [compound 548724]
% inhibition [8]: 61%

547450 (antisense e[5mC]*eT*e[5mC]*eT*eT*dT*dT*dA*dT*dT*dT*dG*dT*dG*dA*eG*eA*eA*eA*eG) [compound 547450]
% inhibition [6]: 71%
% inhibition [7]: 67%

546881 (eA*eG*eT*eT*eT*d[5mC]*d[5mC]*dT*dA*dT*dA*dA*d[5mC]*dA*dG*eT*eA*eT*e[5mC]*eA; antisense) [compound 546881]
% inhibition [4]: 49%

548742 (DNA eA*e[5mC]*eT*eG*dT*dA*d[5mC]*dT*dA*dG*dT*dT*dT*e[5mC]*e[5mC]*eT*eA; antisense) [compound 548742]
% inhibition [9]: 50%

548717 (DNA eA*e[5mC]*eT*dA*dG*dT*dT*dT*d[5mC]*d[5mC]*dT*dA*dT*eA*eA*e[5mC]*eT; antisense) [compound 548717]
% inhibition [8]: 0%

546887 (e[5mC]*e[5mC]*eT*eA*eT*dG*dT*d[5mC]*dA*d[5mC]*dT*dG*dT*dA*d[5mC]*e[5mC]*eT*eA*eT*eA; antisense) [compound 546887]
% inhibition [10]: 82%

547565 (e[5mC]*eT*eT*eA*eT*d[5mC]*dA*dG*dT*d[5mC]*d[5mC]*d[5mC]*dA*dG*dT*e[5mC]*eA*eT*eG*eT; antisense) [compound 547565]
% inhibition [11]: 63%

546395 (eT*eT*e[5mC]*eA*e[5mC]*dA*dA*d[5mC]*dA*d[5mC]*dA*d[5mC]*dA*dG*dT*e[5mC]*eA*eT*eG*eG; antisense) [compound 546395]
% inhibition [2]: 72%

546183 (antisense e[5mC]*eA*e[5mC]*eT*eT*dA*dT*dT*dT*dG*dA*dT*dG*dA*d[5mC]*e[5mC]*eA*e[5mC]*eA*eT) [compound 546183]
% inhibition [3]: 69%

547685 (antisense eA*eT*eA*eA*e[5mC]*dT*dA*dT*dA*dT*d[5mC]*dA*d[5mC]*dT*dG*eT*e[5mC]*e[5mC]*eT*eA) [compound 547685]
% inhibition [12]: 35%

547741 (eT*eA*eG*eG*eT*dG*dG*dT*dG*dG*dG*dA*dT*dT*dG*eG*eT*eG*eG*eT; antisense) [compound 547741]
% inhibition [1]: 47%

547543 (antisense eT*eT*eT*eT*e[5mC]*d[5mC]*dA*dT*dG*d[5mC]*dA*dT*dA*d[5mC]*dT*e[5mC]*eG*e[5mC]*e[5mC]*eT) [compound 547543]
% inhibition [2]: 54%

546365 (antisense eA*eG*eA*e[5mC]*eT*d[5mC]*dT*dG*dG*dA*d[5mC]*dT*dG*d[5mC]*dT*eT*e[5mC]*eT*e[5mC]*eA) [compound 546365]
% inhibition (HepaRG cells, electroporation, 5,000 nM antisense oligonucleotide, approx. 24 hours, primer probe set RTS3454, relative to untreated control cells, Table 11): 64%

547469 (antisense eT*eT*eA*e[5mC]*e[5mC]*d[5mC]*dA*dA*d[5mC]*dA*dG*dT*dT*dG*dG*eT*eA*eT*eA*eA) [compound 547469]
% inhibition [6]: 67%
% inhibition [7]: 50%

548780 (antisense eT*eG*eT*e[5mC]*d[5mC]*dT*dA*dT*dA*dA*d[5mC]*dT*dA*eT*eA*eA*e[5mC]) [compound 548780]
% inhibition [9]: 22%

546238 (e[5mC]*eT*eT*eT*eT*dG*d[5mC]*dA*dG*dG*dT*dT*dA*dA*dA*eA*eG*eG*e[5mC]*eT; antisense) [compound 546238]
% inhibition [5]: 63%

547593 (eT*eT*e[5mC]*e[5mC]*eT*dA*dT*dA*dA*d[5mC]*dT*dA*dT*dA*dA*e[5mC]*eA*eG*eT*eA; antisense) [compound 547593]
% inhibition [4]: 29%

547536 (antisense eT*eG*e[5mC]*eA*eT*dA*dG*dA*d[5mC]*d[5mC]*d[5mC]*d[5mC]*dA*dA*d[5mC]*eA*eG*eA*e[5mC]*eA) [compound 547536]
% inhibition [2]: 48%

547408 (eT*e[5mC]*eA*e[5mC]*eA*dT*dT*d[5mC]*dA*dA*dT*dT*d[5mC]*dT*dT*e[5mC]*eT*e[5mC]*e[5mC]*eT; antisense) [compound 547408]
% inhibition [5]: 84%

547646 (e[5mC]*eT*eA*eT*eA*dT*d[5mC]*dA*d[5mC]*dT*dG*dT*dA*d[5mC]*d[5mC]*eT*eA*eT*eA*eA; antisense) [compound 547646]
% inhibition [10]: 23%

546147 (eT*e[5mC]*eA*eT*eA*dG*dA*dG*dT*dT*dG*dA*dG*dT*d[5mC]*eA*eG*eA*e[5mC]*eA; antisense) [compound 546147]
% inhibition [13]: 76%

546780 (eA*eT*eA*e[5mC]*eT*dG*dG*d[5mC]*dT*dA*dA*dG*dT*d[5mC]*dA*eG*eG*e[5mC]*e[5mC]*e[5mC]; antisense) [compound 546780]
% inhibition [11]: 83%

546879 (eT*eT*eT*e[5mC]*e[5mC]*dT*dA*dT*dA*dA*d[5mC]*dA*dG*dT*dA*eT*e[5mC]*eA*e[5mC]*eT; antisense) [compound 546879]
% inhibition [4]: 42%

547406 (e[5mC]*eT*e[5mC]*e[5mC]*eT*d[5mC]*d[5mC]*dA*dA*dA*dG*dT*d[5mC]*dA*dA*e[5mC]*eT*e[5mC]*e[5mC]*e[5mC]; antisense) [compound 547406]
% inhibition [5]: 81%

546858 (e[5mC]*eT*eA*eT*eA*dA*d[5mC]*dT*dA*dT*dA*dA*d[5mC]*dA*dG*eT*eA*eT*e[5mC]*eA; antisense) [compound 546858]
% inhibition [4]: 21%

546979 (eA*e[5mC]*eT*eG*eT*dT*dG*dT*d[5mC]*d[5mC]*dA*dT*dA*dG*d[5mC]*eA*eG*e[5mC]*eA*eT; antisense) [compound 546979]
% inhibition [12]: 71%

546271 (eA*eG*eA*eA*eA*d[5mC]*dA*d[5mC]*dT*dT*dA*d[5mC]*dA*d[5mC]*dT*eT*e[5mC]*eT*e[5mC]*eT; antisense) [compound 546271]
% inhibition [14]: 60%

546732 (eG*eG*eA*eT*eT*dT*dG*dG*d[5mC]*d[5mC]*d[5mC]*dT*dG*dA*dG*e[5mC]*e[5mC]*e[5mC]*e[5mC]*eA; antisense) [compound 546732]
% inhibition [11]: 14%

547732 (eA*eG*eG*eA*eT*dT*dG*dG*dT*dG*dG*dT*dG*dG*dG*eA*eT*eT*eG*eG; antisense) [compound 547732]
% inhibition [1]: 0%

547279 (antisense eA*eA*eA*eA*e[5mC]*dA*d[5mC]*dA*dA*dT*dT*dG*d[5mC]*dT*dT*e[5mC]*eT*eT*eG*eG) [compound 547279]
% inhibition [13]: 69%

547379 (e[5mC]*eT*e[5mC]*eG*eA*dT*dT*dT*dT*d[5mC]*d[5mC]*dA*dT*dA*d[5mC]*eA*eT*eT*eT*eG; antisense) [compound 547379]
% inhibition [5]: 37%

547544 (antisense eT*e[5mC]*eG*e[5mC]*e[5mC]*dT*dT*dT*dG*dT*dG*dA*dT*dG*d[5mC]*eG*eA*eT*eT*eT) [compound 547544]
% inhibition [2]: 15%

547310 (antisense eA*eT*e[5mC]*eT*eT*dT*d[5mC]*dA*dA*dG*dA*dA*dG*d[5mC]*dA*eA*e[5mC]*e[5mC]*eA*eA) [compound 547310]
% inhibition [13]: 81%

546265 (eG*eT*e[5mC]*eT*eT*d[5mC]*dT*dG*dG*dG*dA*dG*dT*dA*dA*eA*eG*eA*eA*eT; antisense) [compound 546265]
% inhibition [14]: 65%

546260 (eG*eA*eA*eA*eA*dA*d[5mC]*dT*dG*dA*d[5mC]*dA*dG*d[5mC]*dG*eA*eA*eT*e[5mC]*eA; antisense) [compound 546260]
% inhibition [14]: 84%

547541 (antisense eT*eA*eT*eA*eG*dA*dT*dG*dT*dT*dT*dA*dT*dT*dG*eT*eA*eG*e[5mC]*e[5mC]) [compound 547541]
% inhibition [2]: 36%

Source: patent US11840686B2, “Modulation of prekallikrein (PKK) expression” (Ionis Pharmaceuticals, Inc., priority 2013, dated 2023)
